Consider 16 compounds from patent publication US8642611B2, “Alkynylpyrimidines and salts thereof, pharmaceutical compositions comprising same, methods of preparing same and uses of same” (Bayer Intellectual Property GmbH, priority 2007, dated 2014).

Each structure is given as a SMILES string.

One assay deals with T1, CDK2/CycE (Homo sapiens, UniProt P24941).
T1 construct: GST; purchased ProQinase GmbH (Freiburg, Germany); host or cells: insect cells (Sf9)
In words: CDK2/Cyclin E Kinase Assay. The format is biochemical. The settings on record: CDK2/CycE HTRF, 10 μM ATP; read-out: CDK2 activity (assay 6). The text has this: Assay 6: CDK2/Cyclin E Kinase Assay
CDK2/CyclinE—inhibitory activity of compounds of the present invention was quantified employing the CDK2/CycE HTRF assay as described in the following paragraphs.
Recombinant fusion proteins of GST and human CDK2 and of GST and human CycE, expressed in insect cells (Sf9) and purified by Glutathion-Sepharose affinity chromatography, were purchase from ProQinase GmbH (Freiburg, Germany). As substrate for the kinase reaction biotinylated peptide biotin-Ttds-YISPLKSPYKISEG (C-terminus in amid form) was used which can be purchased e.g. form the company JERINI peptide technologies (Berlin, Germany).
CDK2/CycE was incubated for 60 min at 22° C. in the presence of different concentrations of test compounds in 5 μl assay buffer [50 mM Tris/HCl pH 8.0, 10 mM MgCl2, 1.0 mM dithiothreitol, 0.1 mM sodium ortho-vanadate, 10 μM adenosine-tri-phosphate (ATP), 0.75 μM substrate, 0.01% (v/v) Nonidet-P40 (Sigma), 1% (v/v) dimethylsulfoxide]. The concentration of CDK2/CycE was adjusted depending of the activity of the enzyme lot and was chosen appropriate to have the assay in the linear range, typical concentrations were in the range of 1 ng/ml. The reaction was stopped by the addition of 5 μl of a solution of HTRF detection reagents (0.2 μM streptavidine-XLent and 3.4 nM Phospho-(Ser) CDKs Substrate Antibody [product #2324B, Cell Signaling Technology, Danvers, Mass., USA} and 4 nM Prot-A-EuK [Protein A labeled with Europium Cryptate from Cis biointernational, France, product no. 61PRAKLB]) in an aqueous EDTA-solution (100 mM EDTA, 800 mM KF, 0.2% (w/v) bovine serum albumin in 100 mM HEPES/NaOH pH 7.0).
The resulting mixture was incubated 1 h at 22° C. to allow the formation of complex between the phosphorylated biotinylated peptide and the detection reagents. Subsequently the amount of phosphorylated substrate was evaluated by measurement of the resonance energy transfer from the Prot-A-EuK to the streptavidine-XLent. Therefore, the fluorescence emissions at 620 nm and 665 nm after excitation at 350 nm was measured in a HTRF reader, e.g. a Rubystar (BMG Labtechnologies, Offenburg, Germany) or a Viewlux (Perkin-Elmer). The ratio of the emissions at 665 nm and at […] was taken as the measure for the amount of phosphorylated substrate. The data were normalised (enzyme reaction without inhibitor=0% inhibition, all other assay components but no enzyme=100% inhibition) and IC50 values were calculated by a 4 parameter fit using an inhouse software.
Background: TR-FRET usually uses a lanthanide donor and a delayed reading to cut background.

A further assay has as its target Tie2 (Homo sapiens, UniProt Q02763). In words: Tie2 ELISA assay (cellular Tie2 autophosphorylation, angiopoietin-2 stimulated). The assay is classed as cell-based. Conditions: CHO cells stably transfected with Tie2, stimulated by angiopoietin-2; Tie2 autophosphorylation by sandwich-ELISA; read-out: Tie2 activity (assay 1). Also noted: expressed in transfected cells; host or cells: CHO (DHFR-deficient), stably transfected with Tie2. As for the experimental part: Assay 1: Tie2 ELISA Assay
Cellular activity of compounds of the present invention as inhibitors of Tie2 kinase activity was measured employing a Tie2 ELISA assay as described in the following paragraphs. Herein CHO cell-cultures, which are stably transfected by known techniques with Tie2 using DHFR deficiency as selection marker, are stimulated by angiopoietin-2. The specific autophosphorylation of Tie2 receptors is quantified with a sandwich-ELISA using anti-Tie2 antibodies for catch and anti-phosphotyrosine antibodies coupled to HRP for detection.
• 96well tissue culture plate, sterile, Greiner • 96well FluoroNunc plate MaxiSorp Surface C, Nunc • 96well plate polypropylene for compound dilution in DMSO • CHO Tie2/DHFR (transfected cells) • PBS−; PBS++, DMSO • MEM alpha Medium with Glutamax-I without Ribonucleosides and • Deoxyribonucleosides (Gibco #32561-029) • with 10% FCS after dialysis! and 1% PenStrep • Lysis buffer: 1 Tablet “Complete” protease inhibitor • 1 cap Vanadate (1 mL>40 mg/mL; working solution 2 mM) • ad 50 mL with Duschl-Puffer • pH 7.6 • Anti-Tie2-antibody 1: 425 in Coating Buffer pH 9.6 • Stock solution: 1.275 mg/mL>working.: 3 μg/mL • PBST: 2 bottles PBS(10×)+10 ml Tween, fill up with VE-water • RotiBlock 1: 10 in VE-water • Anti-Phosphotyrosine HRP-Conjugated 1: 10000 in 3% TopBlock • 3% TopBlock in PBST • BM Chemiluminescence ELISA Substrate (POD) • solution B 1: 100 solution A • SF9 cell culture medium • Ang2-Fc in SF9 cell culture medium Cell Experiment: • Dispense 5×10^4 cells/well/98 μL in 96well tissue culture plate • Incubate at 37° C./5% CO2 • After 24 h add compounds according to desired concentrations • Add also to control and stimulated values without compounds 2 μL DMSO • And mix for a few min at room temperature • Add 100 μL Ang2-Fc to all wells except control, which receives insect medium • Incubate 20 min at 37° C. • Wash 3× with PBS++ • Add 100 μl Lysis buffer/well and shake a couple of min at room temperature • Store lysates at […] before utilizing for the ELISA Performance of Sandwich-ELISA • Coat 96well FluoroNunc Plate MaxiSorp Surface C with anti-Tie2 mAb 1: 425 in Coating buffer pH 9.6; 100 μL/well overnight at 4° C. • Wash 2× with PBST • Block plates with 250 μL/well RotiBlock 1: 10 in VE-water • Incubate for 2 h at room temperature or overnight at 4° C. shaking • Wash 2× in PBST • Add thawed lysates to wells and incubate overnight shaking at 4° C. • Wash 2× with PBST • Add 100 μL/well anti-Phosphotyrosine HRP-Conjugated 1:10000 in 3% TopBlock (3% TopBlock in PBST) and incubate overnight under shaking • Wash 6× with PBST • Add 100 μL/well BM Chemiluminescence ELISA Substrate (POD) • solutions 1 und 2 (1:100) • Determine luminescence with the LumiCount. Assay 2: Tie-2-Kinase HTRF-Assay without kinase preactivation
For orientation: ELISA stands for enzyme-linked immunosorbent assay.

Tie2, sequence (Q02763 23-1124): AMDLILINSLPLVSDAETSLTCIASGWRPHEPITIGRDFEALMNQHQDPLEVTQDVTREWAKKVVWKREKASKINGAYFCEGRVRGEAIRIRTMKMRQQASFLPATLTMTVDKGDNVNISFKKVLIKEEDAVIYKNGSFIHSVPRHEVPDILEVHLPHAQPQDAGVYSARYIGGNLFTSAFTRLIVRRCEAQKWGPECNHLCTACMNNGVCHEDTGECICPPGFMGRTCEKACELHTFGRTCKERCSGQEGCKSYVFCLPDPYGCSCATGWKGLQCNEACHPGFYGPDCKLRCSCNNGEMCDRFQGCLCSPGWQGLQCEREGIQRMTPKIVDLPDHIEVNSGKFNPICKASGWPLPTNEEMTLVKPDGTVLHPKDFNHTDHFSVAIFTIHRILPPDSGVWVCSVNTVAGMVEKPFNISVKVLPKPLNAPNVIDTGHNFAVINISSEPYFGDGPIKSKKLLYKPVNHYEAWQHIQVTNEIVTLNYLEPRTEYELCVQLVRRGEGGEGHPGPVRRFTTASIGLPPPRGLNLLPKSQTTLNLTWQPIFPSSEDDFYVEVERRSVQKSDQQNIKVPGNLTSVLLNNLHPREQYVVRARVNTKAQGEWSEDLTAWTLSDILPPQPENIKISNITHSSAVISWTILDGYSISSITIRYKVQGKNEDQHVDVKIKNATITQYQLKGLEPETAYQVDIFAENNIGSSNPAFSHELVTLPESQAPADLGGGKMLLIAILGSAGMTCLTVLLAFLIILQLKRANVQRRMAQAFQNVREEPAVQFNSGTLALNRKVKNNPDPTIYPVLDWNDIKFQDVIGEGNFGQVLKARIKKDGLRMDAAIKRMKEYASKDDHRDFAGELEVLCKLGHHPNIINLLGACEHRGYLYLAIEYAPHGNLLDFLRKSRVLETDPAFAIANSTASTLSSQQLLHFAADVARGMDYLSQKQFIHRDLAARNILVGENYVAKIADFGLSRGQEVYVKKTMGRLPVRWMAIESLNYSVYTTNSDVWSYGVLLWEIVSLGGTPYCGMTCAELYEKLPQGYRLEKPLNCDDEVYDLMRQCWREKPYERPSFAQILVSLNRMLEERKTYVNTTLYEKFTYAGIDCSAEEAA

As for `COc1ccc(C#Cc2cnc(Nc3ccc(S(C)(=N)=O)cc3)nc2N[C@H](C)CO)cc1` (mixture of isomers) [Example 1.1, (RS)—S-(4-[4-((R)-2-Hydroxy-1-methyl-ethylamino)-5-(4-methoxy-phenylethynyl)-pyrimidin-2-ylamino]-phenyl)-S-methylsulfoximide], the IC50 on CDK2/CycE was more than 10 µM; on Tie2, less than 0.5 µM.

Consider `C[C@H](CO)Nc1nc(Nc2ccc(S(C)(=N)=O)cc2)ncc1C#Cc1ccccc1` (mixture of isomers) [Example 1.2, (RS)-S-(4-[4-((R)-2-Hydroxy-1-methyl-ethylamino)-5-(phenylethynyl)-pyrimidin-2-ylamino]-phenyl)-S-methylsulfoximide], for which the values for the IC50 at CDK2/CycE and at Tie2 were more than 10 µM and less than 0.5 µM, respectively. `CCc1ccc(C#Cc2cnc(Nc3ccc(S(C)(=N)=O)cc3)nc2N[C@H](C)CO)cc1` (mixture of isomers) [Example 1.8, (RS)-S-(4-[5-(4-Ethyl-phenylethynyl)-4-((R)-2-hydroxy-1-methyl-ethylamino)-pyrimidin-2-ylamino]-phenyl)-S-methylsulfoximide]: the IC50 at CDK2/CycE was more than 10 µM; on Tie2, less than 0.5 µM. For `C[C@H](CO)Nc1nc(Nc2ccc(S(C)(=N)=O)cc2)ncc1C#Cc1ccc(F)cc1` (mixture of isomers) [Example 1.9, (RS)-S-(4-[5-(4-Fluoro-phenyl-ethynyl)-4-((R)-2-hydroxy-1-methyl-ethylamino)-pyrimidin-2-ylamino]-phenyl)-S-methylsulfoximide], in that order: more than 10 µM and less than 0.5 µM. For the compound `Cc1cc(C#Cc2cnc(Nc3ccc(S(C)(=N)=O)cc3)nc2N[C@H](C)CO)ccc1F` (mixture of isomers) [Example 1.13, (RS)-S-(4-[5-(4-Fluoro-3-methyl-phenyl-ethynyl)-4-((R)-2-hydroxy-1-methyl-ethylamino)-pyrimidin-2-ylamino]-phenyl)-S-methylsulfoximide], the results for the IC50 on CDK2/CycE and on Tie2 were more than 10 µM and less than 0.5 µM, respectively.

In the case of `CC(C)NC(=O)N=S(C)(=O)c1cccc(Nc2ncc(C#Cc3cccc(O)c3)c(N[C@H](C)CO)n2)c1` (mixture of isomers) [Example 1.15, (RS)-S-(3-[4-((R)-2-Hydroxy-1-methyl-ethylamino)-5-(3-hydroxy-phenylethynyl)-pyrimidin-2-ylamino]-phenyl)-N-(isopropylcarbamoyl)-S-methylsulfoximide], the results for the IC50 on CDK2/CycE and on Tie2 were 1 to 10 µM and less than 0.5 µM, respectively. The like results for `COc1ccc(C#Cc2cnc(Nc3cccc(S(C)(=N)=O)c3)nc2N[C@H](C)CO)cc1` (mixture of isomers) [Example 1.17, (RS)-S-(3-[4-((R)-2-Hydroxy-1-methyl-ethylamino)-5-(4-methoxy-phenylethynyl)-pyrimidin-2-ylamino]-phenyl)-S-methylsulfoximide] were, in that order, more than 10 µM and less than 0.5 µM. Regarding `C[C@H](CO)Nc1nc(Nc2cccc(S(C)(=N)=O)c2)ncc1C#Cc1cccc(O)c1` (mixture of isomers) [Example 1.18, (RS)-S-(3-[4-((R)-2-Hydroxy-1-methyl-ethylamino)-5-(3-hydroxy-phenylethynyl)-pyrimidin-2-ylamino]-phenyl)-S-methylsulfoximide], the IC50 at CDK2/CycE is 1 to 10 µM; at Tie2, less than 0.5 µM. Consider `Cc1ccccc1C#Cc1cnc(Nc2cccc(S(C)(=N)=O)c2)nc1N[C@H](C)CO` (mixture of isomers) [Example 1.19, (RS)-S-(3-[4-((R)-2-Hydroxy-1-methyl-ethylamino)-5-(2-methyl-phenylethynyl)-pyrimidin-2-ylamino]-phenyl)-S-methylsulfoximide], for which the IC50 at Tie2 is less than 0.5 µM. Still for that read-out and setting: for `Cc1cc(C#Cc2cnc(Nc3cccc(S(C)(=N)=O)c3)nc2N[C@H](C)CO)ccc1F` (mixture of isomers) [Example 1.20, (RS)-S-(3-[5-(4-Fluoro-3-methyl-phenyl-ethynyl)-4-((R)-2-hydroxy-1-methyl-ethylamino)-pyrimidin-2-ylamino]-phenyl)-S-methylsulfoximide] the value was less than 0.5 µM. As to `Cc1ccccc1C#Cc1cnc(Nc2ccc(S(C)(=N)=O)cc2)nc1N[C@H](C)CO` (mixture of isomers) [Example 1.3], the IC50 at CDK2/CycE is 1 to 10 µM; on Tie2, less than 0.5 µM.

Turning to `Cc1ccc(C#Cc2cnc(Nc3ccc(S(C)(=N)=O)cc3)nc2N[C@H](C)CO)cc1` (mixture of isomers) [Example 1.5], the IC50 is 1 to 10 µM at CDK2/CycE and less than 0.5 µM on Tie2. For `CCNc1nc(Nc2ccc(S(C)(=N)=O)cc2)ncc1C#Cc1ccc(F)c(C)c1` (racemic) [Example 1.24, (RS)-S-(4-[4-ethylamino-5-(4-fluoro-3-methyl-phenyl-ethynyl)-pyrimidin-2-ylamino]-phenyl)-S-methylsulfoximide], in that order: more than 10 µM and less than 0.5 µM. For `CCNc1nc(Nc2ccc(S(C)(=N)=O)cc2)ncc1C#Cc1ccc(OC)cc1` (racemic) [Example 1.26, (RS)-S-(4-[4-ethylamino-5-(4-methoxy-phenyl-ethynyl)-pyrimidin-2-ylamino]-phenyl)-S-methylsulfoximide], in that order: more than 10 µM and less than 0.5 µM.

As for `CCOC(=O)N=S(C)(=O)c1ccc(Nc2ncc(C#Cc3cccc(O)c3)c(N[C@H](C)CO)n2)cc1` (mixture of isomers) [Example 2.7], the results for the IC50 at CDK2/CycE and at Tie2 were 1 to 10 µM and less than 0.5 µM, respectively. Turning to `CS(=N)(=O)c1cccc(Nc2ncc(C#Cc3cccc(O)c3)cn2)c1` (racemic) [Example 4.2, (RS)—S-(3-[5-(3-hydroxy-phenylethynyl)-pyrimidin-2-ylamino]-phenyl)-S-methylsulfoximide], the figures for the IC50 on CDK2/CycE and on Tie2 were more than 10 µM and less than 0.5 µM, respectively.
